Reference: patent publication US20260217698A1 (BEYANG THERAPEUTICS CO., LTD., priority 2022, published 2026)
Values after ≈ are worked out from the molar mass of the structure shown.

How the values were obtained:
melanin = experiment: Binding capacity of compounds to melanin; type: in vitro ADME, cuttlefish (Sepia officinalis); settings: cuttlefish (Sepia officinalis), melanin suspension (1 mg/mL); 1 mg/mL melanin in PBS pH 7.4, 2 μM compound, 2 h at 37° C.; read-out: Fu % (percentage of free drug)
How it was run: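 Compound (2 μM final) incubated with washed Sepia melanin (1 mg/mL, PBS pH 7.4) 2 h at 37° C with shaking; PBS with 0.1% BSA served as blank. Supernatants quantified by LC-MS/MS; bound fraction Fb derived from melanin versus blank concentration.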

EGFR = target: T1, EGFR (Homo sapiens, UniProt P00533); experiment: Kinase inhibition, Mobility Shift Assay/IMAP, EGFR; type: biochemical
T1 construct: purchased Carna 08-115
T1 sequence (P00533 669-1210 limits assumed): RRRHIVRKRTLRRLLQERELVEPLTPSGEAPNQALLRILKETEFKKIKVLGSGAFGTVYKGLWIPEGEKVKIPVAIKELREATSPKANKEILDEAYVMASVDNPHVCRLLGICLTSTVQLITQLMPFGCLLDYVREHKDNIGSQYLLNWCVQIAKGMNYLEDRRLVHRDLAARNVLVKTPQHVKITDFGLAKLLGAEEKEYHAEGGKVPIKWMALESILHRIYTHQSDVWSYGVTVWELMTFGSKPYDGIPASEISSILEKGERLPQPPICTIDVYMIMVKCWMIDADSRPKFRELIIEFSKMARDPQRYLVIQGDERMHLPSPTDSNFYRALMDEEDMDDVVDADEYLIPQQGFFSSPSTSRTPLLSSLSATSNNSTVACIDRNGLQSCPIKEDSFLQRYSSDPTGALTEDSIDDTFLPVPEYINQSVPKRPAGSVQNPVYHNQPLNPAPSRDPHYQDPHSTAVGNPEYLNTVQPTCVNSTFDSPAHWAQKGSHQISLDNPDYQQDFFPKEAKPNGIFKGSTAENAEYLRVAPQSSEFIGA
How it was run: (§1)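 Substrate conversion (phosphorylated vs non-phosphorylated) read by mobility shift on Caliper EZ Reader II and converted to % inhibition relative to no-enzyme and DMSO controls. IC50 fitted from % inhibition versus log compound concentration.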

HUVEC cells = experiment: Inhibition of VEGF-induced HUVEC cell proliferation, CellTiter Glo; type: cell-based; settings: Homo sapiens, 20 ng/ml VEGF, 72 hours
Text: In this experiment, human umbilical vein endothelial cells (HUVEC, Lonza) were used. HUVEC cells are primary cells isolated from umbilical veins. This cell line is a model system to study the functions of endothelial cells. Endothelial cell proliferation in response to VEGF is crucial to the pathological angiogenesis associated with conditions such as tumor development and ocular neovascular diseases.
In this assay, a luciferase bioluminescence assay (CellTiter GLU™, Promega) is used to determine the inhibitory activity of the compounds against VEGF-induced HUVEC cell proliferation and viability. CellTiter GLO™ is a homogeneous method for quantifying the count of viable cells in culture based on ATP, an indicator of metabolically active cells. In this assay, the compound was incubated with HUVEC cells for 72 hours, and then the inhibitory activity of the resulting compound against VEGF-induced HUVEC cell proliferation was measured on the En Vision plate reader.
With the RPMI-1640 medium (plus 5% FBS, 1% Penicillin-Streptomycin) used for the HUVEC cell proliferation experiment, add a cell suspension to a 96-well plate at 100 μl per well, i.e., 4000 HUVEC cells/well, and incubate them overnight in a 5% CO2 incubator at 37° C. (serum starvation). After 24 hours, add 96 μl of the experimental medium to the cell wells, and then add 2 μl of the compound to the cell wells; and after 1 hour following the addition of the compound, add 2 μl of 2 μg/ml VEGF to the cell wells. Add 0.1% DMSO and 20 ng/ml VEGF to cell wells to serve as high-reading control wells. Take cell-free wells with only medium as low-reading control wells. […] After 72 hours of incubation of the cell plate in the incubator, hold the cell plate to be tested at room temperature and discard 100 μl of medium per well. Add 100 μl of CTG reagent (CellTiter Glo kit) per well, oscillate the cell plate in a fast oscillator for 3 minutes, and keep the cell plate at room temperature in the dark for 30 minutes. Read the chemiluminescence signal value with the Envision instrument.
X indicates the log value of compound concentration, Y indicates the inhibition rate (% inhibition), Top indicates the readout of the high-reading control well.

TIE2 = target: T2, TIE2 (Homo sapiens, UniProt Q02763); experiment: Kinase inhibition, Mobility Shift Assay/IMAP, TIE2; type: biochemical
T2 construct: purchased BPS 40270
T2 sequence (Q02763 23-1124): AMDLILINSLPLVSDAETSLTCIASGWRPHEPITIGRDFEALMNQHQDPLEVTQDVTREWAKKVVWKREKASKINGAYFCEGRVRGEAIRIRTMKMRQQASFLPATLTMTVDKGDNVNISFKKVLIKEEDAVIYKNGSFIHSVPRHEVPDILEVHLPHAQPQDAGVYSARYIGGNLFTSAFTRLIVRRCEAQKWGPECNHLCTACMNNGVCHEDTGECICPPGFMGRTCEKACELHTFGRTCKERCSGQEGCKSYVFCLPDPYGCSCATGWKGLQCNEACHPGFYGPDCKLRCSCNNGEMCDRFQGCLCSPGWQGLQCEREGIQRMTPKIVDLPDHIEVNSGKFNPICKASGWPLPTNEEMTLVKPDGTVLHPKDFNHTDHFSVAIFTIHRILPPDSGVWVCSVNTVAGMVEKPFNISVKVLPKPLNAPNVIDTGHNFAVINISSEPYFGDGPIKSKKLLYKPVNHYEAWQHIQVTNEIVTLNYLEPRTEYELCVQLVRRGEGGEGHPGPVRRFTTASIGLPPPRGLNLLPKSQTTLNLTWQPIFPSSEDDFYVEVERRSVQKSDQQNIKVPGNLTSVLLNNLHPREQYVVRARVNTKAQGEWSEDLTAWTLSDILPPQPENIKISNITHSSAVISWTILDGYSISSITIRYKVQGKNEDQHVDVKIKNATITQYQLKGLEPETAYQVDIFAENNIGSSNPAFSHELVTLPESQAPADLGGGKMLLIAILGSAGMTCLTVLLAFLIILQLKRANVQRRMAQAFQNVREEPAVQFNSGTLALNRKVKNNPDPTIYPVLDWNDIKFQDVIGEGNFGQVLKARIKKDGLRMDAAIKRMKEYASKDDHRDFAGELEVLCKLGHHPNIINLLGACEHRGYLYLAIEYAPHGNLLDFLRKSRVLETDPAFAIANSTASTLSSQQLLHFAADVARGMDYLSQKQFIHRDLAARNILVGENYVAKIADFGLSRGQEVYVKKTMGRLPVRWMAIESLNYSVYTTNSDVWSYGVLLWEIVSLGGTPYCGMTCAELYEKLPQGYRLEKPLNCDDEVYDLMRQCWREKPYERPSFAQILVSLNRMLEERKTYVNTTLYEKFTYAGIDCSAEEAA
How it was run: as §1

VEGFR3 = target: T3, VEGFR3 (Homo sapiens, UniProt P35916); experiment: Kinase inhibition, Mobility Shift Assay/IMAP, VEGFR3; type: biochemical
T3 construct: purchased Invitrogen PV4129
T3 sequence (P35916 25-1363): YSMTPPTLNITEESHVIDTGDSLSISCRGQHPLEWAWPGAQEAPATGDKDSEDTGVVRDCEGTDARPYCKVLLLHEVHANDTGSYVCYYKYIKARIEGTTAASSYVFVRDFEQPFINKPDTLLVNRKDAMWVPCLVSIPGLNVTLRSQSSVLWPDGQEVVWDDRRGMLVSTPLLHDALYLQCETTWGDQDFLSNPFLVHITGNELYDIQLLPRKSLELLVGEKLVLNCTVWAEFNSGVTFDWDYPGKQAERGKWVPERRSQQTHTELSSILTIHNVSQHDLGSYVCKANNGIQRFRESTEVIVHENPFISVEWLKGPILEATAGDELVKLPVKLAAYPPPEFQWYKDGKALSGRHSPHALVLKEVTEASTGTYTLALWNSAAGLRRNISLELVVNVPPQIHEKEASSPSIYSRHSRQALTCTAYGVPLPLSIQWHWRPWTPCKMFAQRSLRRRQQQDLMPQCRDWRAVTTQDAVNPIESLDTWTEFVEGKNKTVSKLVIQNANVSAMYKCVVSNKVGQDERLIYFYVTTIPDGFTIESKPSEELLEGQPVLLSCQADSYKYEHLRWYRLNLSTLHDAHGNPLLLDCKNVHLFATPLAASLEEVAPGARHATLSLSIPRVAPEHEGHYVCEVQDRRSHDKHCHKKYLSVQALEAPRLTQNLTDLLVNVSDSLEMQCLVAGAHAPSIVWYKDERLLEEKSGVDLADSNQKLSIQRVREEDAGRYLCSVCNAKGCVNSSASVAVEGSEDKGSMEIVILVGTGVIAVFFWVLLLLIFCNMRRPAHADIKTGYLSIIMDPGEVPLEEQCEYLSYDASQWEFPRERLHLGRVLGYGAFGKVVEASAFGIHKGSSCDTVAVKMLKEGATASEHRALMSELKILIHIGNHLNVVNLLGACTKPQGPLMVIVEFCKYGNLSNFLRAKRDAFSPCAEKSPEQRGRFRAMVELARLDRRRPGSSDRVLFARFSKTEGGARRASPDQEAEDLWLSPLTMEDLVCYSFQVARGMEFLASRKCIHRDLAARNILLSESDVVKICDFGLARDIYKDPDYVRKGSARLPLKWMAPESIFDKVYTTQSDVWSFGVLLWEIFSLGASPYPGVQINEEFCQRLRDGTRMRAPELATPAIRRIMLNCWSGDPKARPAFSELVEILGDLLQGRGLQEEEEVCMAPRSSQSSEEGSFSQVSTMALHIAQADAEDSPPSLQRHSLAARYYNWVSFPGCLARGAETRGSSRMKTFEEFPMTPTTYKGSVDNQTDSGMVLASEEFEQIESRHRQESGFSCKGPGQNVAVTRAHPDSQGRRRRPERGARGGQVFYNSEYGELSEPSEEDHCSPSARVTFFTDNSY
How it was run: as §1

VEGFR1 = target: T4, VEGFR1 (Homo sapiens, UniProt P17948); experiment: Kinase inhibition, Mobility Shift Assay/IMAP, VEGFR1; type: biochemical
T4 construct: purchased Invitrogen PR6731B
T4 sequence (P17948 27-1338): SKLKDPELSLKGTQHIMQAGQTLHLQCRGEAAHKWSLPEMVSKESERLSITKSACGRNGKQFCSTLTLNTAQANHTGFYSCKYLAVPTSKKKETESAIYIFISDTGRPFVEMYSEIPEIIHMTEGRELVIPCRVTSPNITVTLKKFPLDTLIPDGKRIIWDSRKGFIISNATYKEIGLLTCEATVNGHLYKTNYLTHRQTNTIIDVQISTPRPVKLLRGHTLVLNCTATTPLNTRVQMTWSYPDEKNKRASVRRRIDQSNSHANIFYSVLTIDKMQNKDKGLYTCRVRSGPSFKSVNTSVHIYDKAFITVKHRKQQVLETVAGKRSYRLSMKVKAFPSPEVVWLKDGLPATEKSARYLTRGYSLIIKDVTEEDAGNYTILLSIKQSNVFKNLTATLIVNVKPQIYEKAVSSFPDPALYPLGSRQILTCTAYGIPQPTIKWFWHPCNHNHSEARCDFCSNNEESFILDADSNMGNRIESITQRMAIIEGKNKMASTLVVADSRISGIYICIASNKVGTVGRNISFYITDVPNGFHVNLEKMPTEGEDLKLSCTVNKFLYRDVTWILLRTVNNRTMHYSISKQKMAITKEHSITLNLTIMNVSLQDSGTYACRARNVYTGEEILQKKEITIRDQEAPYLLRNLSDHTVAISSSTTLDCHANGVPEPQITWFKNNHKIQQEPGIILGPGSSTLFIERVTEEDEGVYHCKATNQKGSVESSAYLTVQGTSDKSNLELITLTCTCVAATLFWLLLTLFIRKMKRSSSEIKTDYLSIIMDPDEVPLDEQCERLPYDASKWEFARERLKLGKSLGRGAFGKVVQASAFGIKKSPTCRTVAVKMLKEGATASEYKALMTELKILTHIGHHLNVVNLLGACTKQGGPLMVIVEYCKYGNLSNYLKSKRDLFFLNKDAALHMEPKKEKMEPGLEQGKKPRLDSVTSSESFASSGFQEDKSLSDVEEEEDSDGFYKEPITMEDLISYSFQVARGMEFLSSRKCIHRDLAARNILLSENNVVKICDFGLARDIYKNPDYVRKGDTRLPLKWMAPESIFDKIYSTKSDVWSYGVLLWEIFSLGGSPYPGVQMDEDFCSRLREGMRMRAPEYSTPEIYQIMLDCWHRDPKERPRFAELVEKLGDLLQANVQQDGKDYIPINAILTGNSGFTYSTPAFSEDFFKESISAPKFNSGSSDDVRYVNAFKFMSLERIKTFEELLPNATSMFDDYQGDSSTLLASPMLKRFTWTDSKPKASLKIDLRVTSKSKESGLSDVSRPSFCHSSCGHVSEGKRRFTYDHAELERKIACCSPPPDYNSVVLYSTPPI
How it was run: as §1

VEGFR2 [1] = target: T5, VEGFR2 (Homo sapiens, UniProt P35968); experiment: Kinase inhibition, Mobility Shift Assay/IMAP, VEGFR2; type: biochemical; design: purchased Carna 08-191
How it was run: as §1
Target sequence in this assay (P35968 790-1356 limits assumed): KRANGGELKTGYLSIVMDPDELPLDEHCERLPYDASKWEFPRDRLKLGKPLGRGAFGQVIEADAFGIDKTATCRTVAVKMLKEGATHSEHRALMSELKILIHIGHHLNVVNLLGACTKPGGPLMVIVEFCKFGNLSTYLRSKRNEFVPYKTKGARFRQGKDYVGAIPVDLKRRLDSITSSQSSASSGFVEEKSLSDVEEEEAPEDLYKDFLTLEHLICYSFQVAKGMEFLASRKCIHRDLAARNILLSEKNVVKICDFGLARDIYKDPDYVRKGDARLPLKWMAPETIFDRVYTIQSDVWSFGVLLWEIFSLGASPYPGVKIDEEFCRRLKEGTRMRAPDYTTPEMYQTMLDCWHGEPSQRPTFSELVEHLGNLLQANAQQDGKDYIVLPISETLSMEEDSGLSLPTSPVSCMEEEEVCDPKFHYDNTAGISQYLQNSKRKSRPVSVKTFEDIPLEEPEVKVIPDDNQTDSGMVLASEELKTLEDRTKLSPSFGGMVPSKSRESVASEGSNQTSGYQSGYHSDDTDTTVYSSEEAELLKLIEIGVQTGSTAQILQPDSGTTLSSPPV

[2] = Solubility test in buffer, LC-MS; type: physicochemical; settings: aqueous buffer, thermodynamic from solid, room temperature, shaking 8 h, pH not given (method: pH 2.0, 6.5, 7.4)
Procedure: Accurately weigh 3 portions of about 2 mg of the compound, and add appropriate volumes of buffers with the pHs of 2.0, 6.5, and 7.4 respectively to obtain a solution with a concentration of 2 mg/mL. After sonication for 10 min, fix them on a shaker and shaking for 8 h at room temperature. After shaking, sonicate for 10 min and centrifuge for 15 min at 13,000 rpm. Pipette 0.1 mL of supernatant into a new tube, shake and rinse it with 5 mL, and discard the liquid. Transfer 0.5 mL of the supernatant again to a new tube, centrifuge it for 15 min at 13,000 rpm, then collect the supernatant (if necessary, dilute with water) and analyze it by LC-MS. The sample concentrations at 3~5 points are subjected to fitting and reticle for quantification.

VEGFR2 [3] = target: T5, VEGFR2; experiment: Inhibition of VEGF-induced VEGFR2 autophosphorylation (pVEGFR2) in HUVEC cells, ELISA; type: cell-based; design: endogenous in cells; host or cells: HUVEC; settings: 50 ng/mL human VEGF, compound 1 h
Text: Vascular endothelial growth factor receptor 2 (VEGFR2) is a primary receptor for VEGF-induced endothelial cell signaling. After ligand binding, VEGFR2 is autophosphorylated and activated. The main function of signaling from VEGFR2 is to induce vascularization during development and after tissue injury, and to bypass blocked blood vessels. Pathologically, VEGF and VEGFR2 are involved in tumor angiogenesis and vascular leakage. They are considered to be main participants in many different cancers and ocular diseases that accompany pathological neovascularization. This assay measured the ability of the compounds to inhibit VEGF-induced VEGFR2 autophosphorylation (pVEGFR2) in HUVEC cells by using ELISA.
Culture cells in a cell culture flask to reach a fusion degree of 60%-80% before cell inoculation. Dilute the cell suspension to […] with a pre-warmed complete medium. Add 80 μL of the cell suspension to all wells of a 96-well cell plate (Corning-3599); and incubate the plate overnight at 37° C. in the presence of 5% CO2. Dissolve the compound powder to 10 mM with DMSO and store it in a nitrogen cabinet. Compound dilution plate: Add a reference compound Ponatinib or a compound to be tested to a 96 V-well plate (Axygen-WIPP 2280) at concentrations achieved as follows: performing 3-fold gradient dilution starting from 5 mM (5 μL of 10 mM compound solution plus 5 μL of DMSO) for a total of 8 concentration points. […] Transfer 20 μL of the diluted compound from the intermediate plate to a cell plate. Then, incubate the cell plate for 1 h at 37° C. in the presence of 5% CO2. After the compound was treated for 1 h, add 25 μL of 250 ng/ml human VEGF at a final concentration of 50 ng/mL to a 96-well plate; and incubate the plate for 5 min at 37° C. in the presence of 5% CO2, centrifuge the plate for 10 min at 3,000 rpm, remove the medium and wash the cells once with 300 μL of pre-chilled DPBS per well. Then, centrifuge the plate for 10 min at 4,000 rpm, remove DPBS, and add 110 μL of pre-chilled 1× cell lysis buffer per well to the 96-well plate. Shake the plate for 40 min at 4° C. Then, freeze the plate in a refrigerator at −80° C. On the next day, remove the plate from the refrigerator at −80° C., thaw the plate, centrifuge the plate for 10 min at 3500 rpm, and add 100 μL of the supernatant per well to an ELISA plate. Seal the plate and incubate it for 2 h at 37° C. Wash the wells 4 times with 1× wash buffer. Add 100 μL of recombinant detection antibody per well. Seal the plate, incubate the plate for 1 h at 37° C., and repeat the step of plate washing. Add 100 μL of secondary antibody per well. Seal the plate, incubate the plate for 30 min at 37° C., and repeat the step of plate washing. Add 100 μL of TMB (protected from light) per well. Seal the plate, incubate the plate for 30 min at 37° C., and add 100 μL of the stop solution per well. Gently shake for 30 sec, measure the absorbance with a SpectraMax® 340 PC 384 Absorbance Microplate Reader within 30 min, and read an optical density value at 450 nm. Conduct data analysis using XL Fit software:
Conduct curve fitting using the 4 Parameter Logistic Model or Sigmoidal Dose-Response Model to obtain IC50 values.
X indicates the log value of compound concentration, Y indicates the inhibition rate (% inhibition), Top indicates the readout of the negative control wells, and Bottom indicates the readout of the positive control well.

Row | SMILES | fraction unbound at 2 h, 2 μM (melanin) | IC50 (EGFR) [µM] | IC50 (TIE2) [µM] | IC50 (VEGFR3) [µM] | IC50 (VEGFR1) [µM] | IC50 (VEGFR2 [1]) [µM] | solubility at 8 h [2] [mg/mL] | IC50 (VEGFR2 [3]) [µM] | IC50 (HUVEC cells) [µM]
1 | CN1CCC(CCNC(=O)Nc2snc(OCc3ccc4c(c3)OCC4)c2C(N)=O)CC1 [Compound T053, 3-((2,3-dihydrobenzofuran-6-yl)methoxy)-5-(3-(2-(1-methylpiperidin-4-yl)ethyl)ureido)isothiazole-4-carboxamide] | 0.0225 | 11.4 | 0.258 | 0.0174 | 0.0147 | 0.0104 | – | – | 0.0697
2 | COc1cc(COc2nsc(NC(=O)NCCCCN3CC[C@@H](F)C3)c2C(N)=O)cc(OC)c1 [Compound T064, (R)-3-((3,5-dimethoxybenzyl)oxy)-5-(3-(4-(3-fluoropyrrolidin-1-yl)butyl)ureido)isothiazole-4-carboxamide] | 0.0269 | > 60 | – | – | – | 0.0433 | 0.4 (≈ 807 µM) | – | 0.0792
3 | NC(=O)c1c(OCc2cc3c(cc2F)CCO3)nsc1NC(=O)NCCCCN1CCCC1 [Compound T071, 3-((5-fluoro-2,3-dihydrobenzofuran-6-yl)methoxy)-5-(3-(4-(pyrrolidin-1-yl)butyl)ureido)isothiazole-4-carboxamide] | 0.0231 | 15.2 | 0.147 | 0.0187 | 0.0134 | 0.00436 | – | – | 0.0745
4 | CN1CCC(CCNC(=O)Nc2snc(OCc3cc4c(cc3F)CCO4)c2C(N)=O)CC1 [Compound T073] | – | 4.55 | – | 0.0107 | 0.00599 | 0.00273 | – | – | 0.0269
5 | NC(=O)c1c(OCc2cc3c(cc2F)CCO3)nsc1NC(=O)NCCCCN1CC[C@@H](F)C1 [Compound T079, 3-[(5-fluoro-2,3-dihydrobenzofuran-6-yl)methoxy]-5-[4-[(3R)-3-fluoropyrrolidin-1-yl]butylcarbamoylamino]isothiazole-4-carboxamide] | 0.0526 | 5.14 | 0.115 | 0.0214 | 0.0118 | 0.00447 | – | – | 0.0577
6 | NC(=O)c1c(OCc2cc3c(cc2F)CCO3)nsc1NC(=O)NCCCCN1CC[C@H](O)C1 [Compound T090, 3-[(5-fluoro-2,3-dihydrobenzofuran-6-yl)methoxy]-5-[4-[(3S)-3-hydroxypyrrolidin-1-yl]butylcarbamoylamino]isothiazole-4-carboxamide] | 0.025 | 13.9 | – | 0.013 | 0.00773 | 0.00355 | – | – | 0.0469

The next lines start with results.

Row | fraction unbound at 2 h, 2 μM (melanin) | IC50 (EGFR) [µM] | IC50 (TIE2) [µM] | IC50 (VEGFR3) [µM] | IC50 (VEGFR1) [µM] | IC50 (VEGFR2 [1]) [µM] | solubility at 8 h [2] [mg/mL] | IC50 (VEGFR2 [3]) [µM] | SMILES | IC50 (HUVEC cells) [µM]
7 | 0.0268 | 11.8 | 0.163 | – | – | 0.0147 | – | – | COc1ccc(F)c(COc2nsc(NC(=O)NCCCCN3CC[C@H](F)C3)c2C(N)=O)c1F [Compound T113, 3-[(2,6-difluoro-3-methoxy-phenyl)methoxy]-5-[4-[(3S)-3-fluoropyrrolidin-1-yl]butylcarbamoylamino]isothiazole-4-carboxamide] | 0.027
8 | 0.0148 | 8.22 | 0.117 | – | – | 0.0072 | – | – | NC(=O)c1c(OCc2cc3c(cc2F)CCO3)nsc1NC(=O)NCCCCN1CC[C@H](F)C1 [Compound T115, 3-[(5-fluoro-2,3-dihydrobenzofuran-6-yl)methoxy]-5-[4-[(3S)-3-fluoropyrrolidin-1-yl]butylcarbamoylamino]isothiazole-4-carboxamide] | 0.036
9 | 0.0372 | 5.68 | 2.1 | – | – | 0.00255 | 1.28 (≈ 2450 µM) | – | NC(=O)c1c(OCc2cc(C(=O)NC3CC3)ccc2F)nsc1NC(=O)NCCCN1CC[C@@H](F)C1 [Compound T122, 3-[[5-(cyclopropylcarbamoyl)-2-fluoro-phenyl]methoxy]-5-[3-[(3R)-3-fluoropyrrolidin-1-yl]propylcarbamoylamino]isothiazole-4-carboxamide] | 0.044
10 | 0.0889 | 15.6 | – | – | – | 0.0119 | – | 0.071 | NC(=O)c1c(OCc2c(F)cc3c(c2F)OCC3)nsc1NC(=O)NCCCCN1CCCC1 [Compound T129, 3-[(5,7-difluoro-2,3-dihydrobenzofuran-6-yl)methoxy]-5-(4-pyrrolidin-1-ylbutylcarbamoylamino)isothiazole-4-carboxamide] | –
